In patent US10758534B2 (Vertex Pharmaceuticals Incorporated, priority 2014, dated 2020) one finds EC30 data, which are given here for 29 compounds.

Where only a bound is given, the exact number is not on record here.

For the first experiment, the target named is T1, F508del (Homo sapiens, UniProt P13569, DEL508-508).
T1 construct: expressed in transfected cells
T1 sequence (P13569 with tags, fused parts or gaps DEL508-508): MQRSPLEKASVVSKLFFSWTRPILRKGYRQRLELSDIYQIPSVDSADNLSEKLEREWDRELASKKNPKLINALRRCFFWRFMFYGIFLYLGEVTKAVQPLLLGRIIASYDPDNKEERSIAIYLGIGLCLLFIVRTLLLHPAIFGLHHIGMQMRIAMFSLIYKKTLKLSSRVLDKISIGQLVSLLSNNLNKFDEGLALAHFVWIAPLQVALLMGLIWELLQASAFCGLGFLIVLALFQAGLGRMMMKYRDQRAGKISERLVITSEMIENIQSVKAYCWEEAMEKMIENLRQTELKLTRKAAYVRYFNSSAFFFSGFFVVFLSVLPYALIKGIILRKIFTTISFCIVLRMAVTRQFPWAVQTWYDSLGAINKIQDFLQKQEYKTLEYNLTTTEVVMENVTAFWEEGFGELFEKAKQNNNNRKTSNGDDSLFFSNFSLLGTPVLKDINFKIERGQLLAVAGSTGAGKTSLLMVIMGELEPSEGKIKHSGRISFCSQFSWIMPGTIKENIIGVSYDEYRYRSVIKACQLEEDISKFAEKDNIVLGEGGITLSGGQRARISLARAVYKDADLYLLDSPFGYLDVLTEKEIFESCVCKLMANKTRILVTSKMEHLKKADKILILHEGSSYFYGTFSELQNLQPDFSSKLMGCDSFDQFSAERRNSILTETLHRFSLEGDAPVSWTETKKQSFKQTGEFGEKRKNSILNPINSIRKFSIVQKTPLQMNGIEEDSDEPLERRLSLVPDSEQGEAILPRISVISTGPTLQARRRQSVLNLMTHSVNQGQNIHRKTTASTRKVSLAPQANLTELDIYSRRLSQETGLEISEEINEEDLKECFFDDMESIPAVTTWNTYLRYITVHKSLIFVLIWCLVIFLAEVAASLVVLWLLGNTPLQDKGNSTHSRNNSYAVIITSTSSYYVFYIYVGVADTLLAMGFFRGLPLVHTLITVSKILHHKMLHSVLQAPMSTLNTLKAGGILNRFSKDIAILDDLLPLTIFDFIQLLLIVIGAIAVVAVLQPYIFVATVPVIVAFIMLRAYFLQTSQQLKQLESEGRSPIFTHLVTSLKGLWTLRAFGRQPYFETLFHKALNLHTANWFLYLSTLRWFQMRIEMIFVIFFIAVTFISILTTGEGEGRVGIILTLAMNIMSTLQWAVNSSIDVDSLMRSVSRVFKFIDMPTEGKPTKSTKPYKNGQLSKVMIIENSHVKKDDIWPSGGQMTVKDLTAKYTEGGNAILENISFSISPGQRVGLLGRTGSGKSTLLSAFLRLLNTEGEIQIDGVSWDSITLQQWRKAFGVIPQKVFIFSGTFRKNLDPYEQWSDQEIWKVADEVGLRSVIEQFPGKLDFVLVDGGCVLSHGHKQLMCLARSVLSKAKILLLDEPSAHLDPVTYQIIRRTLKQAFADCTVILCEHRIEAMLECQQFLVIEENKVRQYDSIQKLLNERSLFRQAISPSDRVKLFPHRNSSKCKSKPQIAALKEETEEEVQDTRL
Kind of experiment: Protocol 2: FRET membrane potential optical assay (VIPR), identification of correction compounds. Format: cell-based. The conditions noted are these: F508del CFTR modulator activity; compounds of Table 1; read-out: EC30. Summed up:
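Single-addition HTS format: F508del-expressing NIH3T3 cells pre-incubated 16 hrs at 37° C. ± compound, with 27° C. culture as positive control. Channel activation by forskolin 10 μM and genistein 20 μM upon switch to gluconate bath, pH 7.4; read-out is FRET-based depolarization signal.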
What is called EC30 is the concentration at which the effect reaches the 30% level. As for `Cc1cc(F)cc(-c2ccc(C(=O)NS(=O)(=O)c3cccnc3N)c(N3C[C@@H](C)CC3(C)C)n2)c1` [Compound 2505, N-[(2-amino-3-pyridyl)sulfonyl]-6-(3-fluoro-5-methyl-phenyl)-2-[(4S)-2,2,4-trimethylpyrrolidin-1-yl]pyridine-3-carboxamide], the EC30 was < 3 µM. `Cc1ccc(-c2ccc(C(=O)NS(=O)(=O)c3cccc(N)n3)c(N3C[C@@H](C)CC3(C)C)n2)c(O)c1` [Compound 2043, N-[(6-amino-2-pyridyl)sulfonyl]-6-(2-hydroxy-4-methyl-phenyl)-2-[(4S)-2,2,4-trimethylpyrrolidin-1-yl]pyridine-3-carboxamide]: the EC30 was < 3 µM. For the compound `CCOc1cc(-c2ccc(C(=O)NS(=O)(=O)c3cccnc3N)c(N3C[C@@H](C)CC3(C)C)n2)ccc1F` [Compound 2665, N-[(2-amino-3-pyridyl)sulfonyl]-6-(3-ethoxy-4-fluoro-phenyl)-2-[(4S)-2,2,4-trimethylpyrrolidin-1-yl]pyridine-3-carboxamide], the EC30 was < 3 µM. In the case of `COc1ccc(Nc2cccc(S(=O)(=O)NC(=O)c3cccnc3N3CC(C)CC3(C)C)n2)cc1Cl` (centres unmarked) [Compound 2571, N—[[6-(3-chloro-4-methoxy-anilino)-2-pyridyl]sulfonyl]-2-(2,24-trimethylpyrrolidin-1-yl)pyridine-3-carboxamide], the EC30 was < 3 µM. As for `CC1CN(c2ncccc2C(=O)NS(=O)(=O)c2cccc(NC(C)C)n2)C(C)(C)C1` (centres unmarked) [Compound 2200, N—[[6-(isopropylamino)-2-pyridyl]sulfonyl]-2-(2,2,4-trimethylpyrrolidin-1-yl)pyridine-3-carboxamide], the EC30 fell in the range of 3 to 10 µM. Consider `C[C@@H]1CN(c2nc(-c3cccc(OC(F)(F)F)c3)ccc2C(=O)NS(=O)(=O)c2cccnc2N)C(C)(C)C1` [Compound 2245, N-[(2-amino-3-pyridyl)sulfonyl]-6-[13-(trifluoromethoxy)phenyl]-2-[(4S)-2,2,4-trimethylpyrrolidin-1-yl]pyridine-3-carboxamide], for which the EC30 was < 3 µM. On to `CC(C)CCOc1cccc(S(=O)(=O)NC(=O)c2ccc(C(C)(C)C)nc2N2CC(C)CC2(C)C)n1` (centres unmarked) [Compound 2716], for which the EC30 is < 3 µM. Take `Cc1cc(-c2ccc(C(=O)NS(=O)(=O)c3cccc(N)n3)c(N3C[C@@H](C)CC3(C)C)n2)cc(OC(C)C)n1` [Compound 2306, N-[(6-amino-2-pyridyl)sulfonyl]-6-(2-isopropoxy-6-methyl-4-pyridyl)-2-[(4S)-2,2,4-trimethylpyrrolidin-1-yl]pyridine-3-carboxamide]: the EC30 was < 3 µM. Still for that read-out and setting: then `CCOCCOCCOc1ccn(-c2ccc(C(=O)NS(=O)(=O)c3cccnc3N)c(N3C[C@@H](C)CC3(C)C)n2)n1` [Compound 2326, N-[(2-amino-3-pyridyl)sulfonyl]-6-[3-[2-(2-ethoxyethoxy)ethoxy]pyrazol-1-yl]-2-[(4S)-2,2,4-trimethylpyrrolidin-1-yl]pyridine-3-carboxamide], with < 3 µM; and `CCOCCOc1ccc(C(=O)NS(=O)(=O)c2cccc(N)n2)c(N2C[C@@H](C)CC2(C)C)n1` [Compound 2678, N-[(6-amino-2-pyridyl)sulfonyl]-6-(2-ethoxyethoxy)-2-[(4S)-2,2,4-trimethylpyrrolidin-1-yl]pyridine-3-carboxamide], with 3 to 10 µM. Regarding `Cc1cc(-c2ccc(C(=O)NS(=O)(=O)c3ccc[nH]c3=O)c(N3C[C@@H](C)CC3(C)C)n2)ccc1F` [Compound 2456, 6-(4-fluoro-3-methyl-phenyl)-N-[(2-oxo-1H-pyridin-3-yl)sulfonyl]-2-[(4S)-2,2,4-trimethylpyrrolidin-1-yl]pyridine-3-carboxamide], the EC30 is < 3 µM. Take `CC1CN(c2ncccc2C(=O)NS(=O)(=O)c2cccc(OCc3cccc(-n4cccc4)c3)n2)C(C)(C)C1` (centres unmarked) [Compound 2600, N—[[6-[(3-pyrrol-1-ylphenyl)methoxy]-2-pyridyl]sulfonyl]-2-(2,2,4-trimethylpyrrolidin-1-yl)pyridine-3-carboxamide]: the EC30 is < 3 µM. For the compound `Cc1ccc(-c2ccc(C(=O)NS(=O)(=O)c3ccc[nH]c3=O)c(N3C[C@@H](C)CC3(C)C)n2)cc1F` [Compound 2084, 6-(3-fluoro-4-methyl-phenyl)-N-[(2-oxo-1H-pyridin-3-yl)sulfonyl]-2-[(4S)-2,2,4-trimethylpyrrolidin-1-yl]pyridine-3-carboxamide], the EC30 was < 3 µM. Regarding `COc1cc(-c2ccc(C(=O)NS(=O)(=O)c3cccnc3N)c(N3C[C@@H](C)CC3(C)C)n2)ccn1` [Compound 2646, N-[(2-amino-3-pyridyl)sulfonyl]-6-(2-methoxy-4-pyridyl)-2-[(4S)-2,2,4-trimethylpyrrolidin-1-yl]pyridine-3-carboxamide], the EC30 was < 3 µM. Same read-out and setting: the figure for `CC(C)c1ccc(-c2ccc(C(=O)NS(=O)(=O)c3cccnc3N)c(N3C[C@@H](C)CC3(C)C)n2)cc1` [Compound 2368, N-[(2-amino-3-pyridyl)sulfonyl]-6-(4-isopropylphenyl)-2-[(4S)-2,2,4-trimethylpyrrolidin-1-yl]pyridine-3-carboxamide] is < 3 µM; for `COc1c(C)cccc1-c1ccc(C(=O)NS(=O)(=O)c2cccnc2N)c(N2C[C@@H](C)CC2(C)C)n1` [Compound 2380, N-[(2-amino-3-pyridyl)sulfonyl]-6-(2-methoxy-3-methyl-phenyl)-2-[(4S)-2,2,4-trimethylpyrrolidin-1-yl]pyridine-3-carboxamide] it is < 3 µM.

The experiment is the same for the next values; noted with them: Table 3; compounds of Table 1 as modulators of CFTR activity; protocol not stated.
For the compound `CC(C)COc1cc(F)cc(-c2ccc(C(=O)NS(=O)(=O)c3cccc(N)n3)c(N3C[C@H](C)C[C@H](C)C3)n2)c1` [Compound 371, N-[(6-amino-2-pyridyl)sulfonyl]-2-[(3R,5S)-3,5-dimethyl-1-piperidyl]-6-(3-fluoro-5-isobutoxy-phenyl)pyridine-3-carboxamide], the EC30 entry is listed as “+++ (“+++” means <3 uM)”. On the same count and under the same terms, the entry for `CCCc1ccccc1-c1cnc(Oc2c(C)cc(C)cc2C)c(C(=O)NS(=O)(=O)c2cccc(N)n2)c1` [Compound 429, N-[(6-amino-2-pyridyl)sulfonyl]-5-(2-propylphenyl)-2-(2,4,6-trimethylphenoxy)pyridine-3-carboxamide] is “+++ (“+++” means <3 uM)”; for `Cn1ccc2cccc(Cn3nc(C(C)(C)C)cc3C(=O)NS(=O)(=O)c3cccc(N)c3)c21` [Compound 755, N-(3-aminophenyl)sulfonyl-5-tert-butyl-2-[(1-methylindol-7-yl)methyl]pyrazole-3-carboxamide] it is “++ (“++” means between 3 uM and 10 uM)”; for `Cc1cc(C)c(CN2CCc3ccccc3CC2C(=O)NS(=O)(=O)c2cc[nH]n2)c(C)c1` (centres unmarked) [Compound 628, N-(1H-pyrazol-3-ylsulfonyl)-3-[(2,4,6-trimethylphenyl)methyl]-1,2,4,5-tetrahydro-3-benzazepine-4-carboxamide] it is “+++ (“+++” means <3 uM)”.

Turning to `COc1cccc(S(=O)(=O)NC(=O)c2ccc(C(C)(C)C)nc2-c2ccc(C)cc2)c1` [Compound 327, 6-tert-butyl-N-(3-methoxyphenyl)sulfonyl-2-(p-tolyl)pyridine-3-carboxamide], the EC30 result was “+++ (“+++” means <3 uM)”. On the same count and under the same terms, the entry for `CC(C)Oc1ccc(-c2ccc(C(=O)NS(=O)(=O)c3cccc(N)n3)c(N3CCCC3C(C)C)n2)cn1` (centres unmarked) [Compound 724, N-[(6-amino-2-pyridyl)sulfonyl]-6-(6-isopropoxy-3-pyridyl)-2-(2-isopropylpyrrolidin-1-yl)pyridine-3-carboxamide] is “+++ (“+++” means <3 uM)”; for `CC(C)Oc1ccc(-c2ccc(C(=O)NS(=O)(=O)c3cccc(N)n3)c(N3CC[C@H](C)C3(C)C)n2)cn1` [Compound 557, N-[(6-amino-2-pyridyl)sulfonyl]-6-(6-isopropoxy-3-pyridyl)-2-[(3S)-2,2,3-trimethylpyrrolidin-1-yl]pyridine-3-carboxamide] it is “+++ (“+++” means <3 uM)”.

Consider `Cc1cc(C)c(Oc2nc(C(C)(C)C)ccc2C(=O)NS(=O)(=O)c2cccc(C(=O)O)c2)c(C)c1` [Compound 205, 3-[[6-tert-butyl-2-(2,4,6-trimethylphenoxy)pyridine-3-carbonyl]sulfamoyl]benzoic acid], for which the EC30 entry was “++ (“++” means between 3 uM and 10 uM)”.

Regarding `Cc1cc(C)c(Cn2c(C(=O)NS(=O)(=O)c3cccc(N)c3)cc3c(C#N)cccc32)c(C)c1` [Compound 306, N-(3-aminophenyl)sulfonyl-4-cyano-1-[(2,4,6-trimethylphenyl)methyl]indole-2-carboxamide], the EC30 result is “+++ (“+++” means <3 uM)”. With `CN=S(=O)(NC(=O)c1ccc(C(C)(C)C)nc1Oc1c(C)cc(C)cc1C)c1cccc(N)c1` (stereo not drawn) [Compound 568, N—[S-(3-aminophenyl)-N-methyl-sulfonimidoyl]-6-tert-butyl-2-(2,4,6-trimethylphenoxy)pyridine-3-carboxamide], the EC30 entry is listed as “+++ (“+++” means <3 uM)”. `Cc1cc(C)c(CN2Cc3ccccc3C2C(=O)NS(=O)(=O)c2cccc(N)c2)c(C)c1` (centres unmarked) [Compound 90, N-(3-aminophenyl)sulfonyl-2-[(2,4,6-trimethylphenyl)methyl]isoindoline-1-carboxamide]: the EC30 result is recorded as “+++ (“+++” means <3 uM)”.

Consider `COc1cc(-c2ccc(C(=O)NS(=O)(=O)c3cccc(N)n3)c(Oc3c(C)cc(C)cc3C)n2)ccc1O` [Compound 768, N-[(6-amino-2-pyridyl)sulfonyl]-6-(4-hydroxy-3-methoxy-phenyl)-2-(2,4,6-trimethylphenoxy)pyridine-3-carboxamide], for which the EC30 entry was “++ (“++” means between 3 uM and 10 uM)”. As for `Cc1cc(C)c(CN2Cc3ccccc3C2(C)C(=O)NS(=O)(=O)c2ccn[nH]2)c(C)c1` (centres unmarked) [Compound 378, 1-methyl-N-(1H-pyrazol-5-ylsulfonyl)-2-[(2,4,6-trimethylphenyl)methyl]isoindoline-1-carboxamide], the EC30 entry is “+++ (“+++” means <3 uM)”.
